Measurements reported in patent US20200069775A1, “BRAIN OSTEOCALCIN RECEPTOR AND COGNITIVE DISORDERS” (The Trustees of Columbia University in the City of New York, priority 2017, published 2020).

Assays:
[1] = Blood brain barrier crossing: subcutaneous pump infusion, content in blood, bone and brain parts by ELISA; format: in vivo, mouse; details: Osteocalcin−/− mice, subcutaneous pumps 50 ng/hour, seven days
Method: Osteocalcin−/−, Gprc6a−/−, Osteocalcin-mCherry, and Osteocalcin foxed mice have been previously described (Ducy et al., 1996, Nature 382:448-452; Oury et al., 2011, Cell 144:796-809). Mouse genotypes were determined by PCR. For all experiments, controls were littermate female WT, Cre-expressing, or flox/flox. All mice were maintained on a pure 129-Sv genetic background except for the inducible deletion Osteocalcin model (mix background: 25% C57/BL6 and 75% 129sv). For inducible gene deletion mice, tamoxifen was prepared in corn oil and injected intraperitoneally (IP) (1 mg/20g of body weight) over one week. For osteocalcin delivery to pregnant mice, IP injections (240 ng/day) were performed as soon as a plug was present daily until delivery (E0.5-E18.5). For osteocalcin or leptin infusion in adult Osteocalcin−/− or ob/ob mice, pumps (Alzet micro-osmotic pump, Model 1002) delivering osteocalcin (300 ng/hr), leptin (50 ng/hr), or vehicle were surgically installed subcutaneously in the backs of 3-month old mice. For the postnatal rescue of cognitive functions in Osteocalcin−/− mice, osteocalcin (10 ng/hour) or vehicle were delivered intrasubventricularly (icv) as previously described (Ducy et al., 2000, Cell 100:197-207). Leptin and osteocalcin content in sera and tissues were determined by ELISA.
To understand how this behavioral phenotype develops, whether osteocalcin crosses the blood brain barrier (BBB) was tested by installing pumps that subcutaneously delivered vehicle or uncarboxylated osteocalcin (50 ng/hour) in three-month-old Osteocalcin−/− mice. The positive control for this experiment was subcutaneous infusion of leptin (50 ng/hour) in 3 month-old ob/ob mice, since leptin is known to cross the BBB (Banks et al., 1996, Peptides 17:305-311). Seven days later, osteocalcin and leptin content were measured in blood, bone, and in various parts of the brain in Osteocalcin−/− and ob/ob mice, respectively.

[2] = system: mouse primary hindbrain neurons (MPHN); assay: Gene expression in mouse primary hindbrain neurons (MPHN); format: cell-based; details: osteocalcin 3 ng/ml, 2 or 4 hours; WT and Gprc6a−/− primary brainstem neuronal culture
Method: For gene expression studies, RNA was isolated from primary neurons or tissue using TRIZOL® (Invitrogen). cDNA synthesis was performed following a standard protocol from Invitrogen and qPCR analyses were done using specific quantitative PCR primers from SABiosciences (http://www.sabiosciences.com/RT2PCR.php).
For primary culture of hindbrain neurons, E14.5 embryos were obtained from matings of 129-Sv WT mice. Hindbrains were dissected out and collected in ice-cold filter sterilized HBSS buffered with 10 mM HEPES until dissection was complete, at which point they were finely chopped into 2 mm cubes, dissociated by trituration with a fire-polished Pasteur pipette and spun down at 4° C. Cells were then plated onto poly-D-lysine coated coverslips or dishes in Neurobasal medium supplemented with 2% B27, 0.25 mM Glutamax, 0.25 mM L-glutamine, penicillin G (50 U/ml), and streptomycin sulphate ([…]). Cultures were fed every 3-6 days with one half replacement medium without L-glutamine.
To determine if osteocalcin acts directly on neurons to modulate neurotransmitter synthesis, several types of assays were performed. First, brainstem and midbrain explants from WT and Gprc6a^−/− mice were generated. […] Third, to further confirm that osteocalcin signals in neurons of the hindbrain, calcium flux in MPHN treated with undercarboxylated or carboxylated osteocalcin (FIG. 3F) was measured.

[3] = system: cAMP production in hippocampal neurons; assay: cAMP accumulation in primary hippocampal neurons; format: cell-based, mouse; details: cultured hippocampal neurons
Method: Hippocampal neurons were isolated from mouse embryos (embryonic day 16.5). After dissection, hippocampi were digested in Tryspin 0.05% and EDTA 0.02% for 15 minutes at 37° C. After 3 wash in DMEM (high glucose and sodium pyruvate) supplemented with 10% of fetal bovine serum, 100 U/mL Penicillin-Streptomycin and 1× GlutaMAX, cells were dissociated by pipetting up and down and then plated. After the culture was established, medium was changed 2 times per week with Neurobasal medium supplemented with B-27 supplement and 1× GlutaMAX. Experiments were performed on cells after 15 days of culture (DIV 15).
For Western blotting, frozen hippocampi from adult mice were lysed and homogenized in 250 µl tissue lysis buffer (25 mM Tris HCl 7.5; 100 mM NaF; 10 mM Na4P2O7; 10 mmM EDTA; 1% NP 40). Proteins were transferred to nitrocellulose membranes, and blocked with TBST-5% BSA for 1 hour. […] Western blot bands were quantified using ImageJ software. cAMP accumulation was measured in primary hippocampal neurons by using cAMP Parameter Assay Kit (R&D systems) and performed in primary hippocampal neurons (DIV15) following manufacturer instructions. For IP1 accumulation was determined in primary hippocampal neurons (DIV15) by using IP-One ELISA assay kit (Cisbio) following manufacturer instructions. […]

With “osteocalcin: Recombinant osteocalcin bacterially produced, cleaved from the GST subunit; completely undercarboxylated at all three sites; full-length mouse osteocalcin (YLGASVPSPDPLEPTREQCELNPACDELSDQYGLKTAYKRIYGITI)” as the substance, how does the “osteocalcin accumulation in parts of the brain” value [1] read?
The value was “accumulated in Osteocalcin−/− mice in the brainstem, thalamus, and hypothalamus”.

And the “osteocalcin concentration in brainstem, thalamus, and hypothalamus relative to that observed in serum” value [1]?
The value was ~50%.

And the Tph2 expression [2]?
The Tph2 expression was “increased more than three-fold”.

What about the “decrease of GAD1 expression” value [2] of the same substance?
The value was 65%.

What about the cAMP production [3] of the same substance?
The cAMP production was “did not affect cAMP production”.
